From patent US20260355196A1, “INHIBITORS AND DEGRADERS OF PIP4K PROTEIN” (Larkspur Biosciences, Inc., priority 2023, published 2026)

The compounds below were run against T1, PIP4K2C (Homo sapiens, UniProt Q8TBX8) (assay: HiBiT PIP4K2C degradation assay in MOLT-4 cells (endogenous PIP4K2C C-terminally tagged with HiBiT)). Conditions: 6 hours of incubation time, rather than 24 hours; MOLT-4, top concentration 10 micromolar; read-out: HiBIT-degradation MOLT4 PIP4k2C DC50 (6 hours, marked *).
T1 sequence (Q8TBX8 1-421): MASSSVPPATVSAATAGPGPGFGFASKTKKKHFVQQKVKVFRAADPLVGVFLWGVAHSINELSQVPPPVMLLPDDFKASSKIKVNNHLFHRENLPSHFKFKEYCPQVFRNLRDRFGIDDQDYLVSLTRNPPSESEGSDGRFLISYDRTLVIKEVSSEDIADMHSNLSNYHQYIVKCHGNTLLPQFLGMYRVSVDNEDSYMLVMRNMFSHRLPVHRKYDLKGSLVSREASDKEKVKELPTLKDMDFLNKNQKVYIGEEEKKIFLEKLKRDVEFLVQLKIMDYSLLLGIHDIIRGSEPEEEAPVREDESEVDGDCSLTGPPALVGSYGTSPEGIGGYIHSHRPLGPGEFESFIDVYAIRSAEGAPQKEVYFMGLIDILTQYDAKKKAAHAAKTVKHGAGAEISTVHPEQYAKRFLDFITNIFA
Assay type: cell-based
Parameters: untagged in primary human PBMCs and monocyte-derived dendritic cells
How it was run: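 In a CRISPR-engineered MOLT-4 clone carrying HiBiT-tagged PIP4K2C, degradation was assessed after 24 or 6 hours of dosing (10 micromolar top, 3-fold steps). Luminescence from lytic HiBiT detection was fitted to obtain DC50.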
With `O=C1CCC(Nc2ccc(C3CCN(CC4CCN(C(=O)[C@H]5CC[C@H](Nc6ncc(F)c(-c7cccc(N8CCOCC8)c7)n6)CC5)CC4)CC3)c(F)c2)C(=O)N1` (stereo partly drawn) [Compound 672, trans-3-((3-fluoro-4-(1-((1-(4-((5-fluoro-4-(3-morpholinophenyl)pyrimidin-2-yl)amino)cyclohexane-1-carbonyl)piperidin-4-yl)methyl)piperidin-4-yl)phenyl)amino)piperidine-2,6-dione] the DC50 was < 500 nM. With `O=C1CCC(Nc2ccc(N3CCN(C4CCN(C(=O)O[C@H]5CC[C@H](Nc6ncc(F)c(-c7cccc(N8CCOCC8)c7)n6)CC5)CC4)CC3)c(F)c2)C(=O)N1` (stereo partly drawn) [Compound 673, trans-4-((5-fluoro-4-(3-morpholinophenyl)pyrimidin-2-yl)amino)cyclohexyl 4-(4-(4-((2,6-dioxopiperidin-3-yl)amino)-2-fluorophenyl)piperazin-1-yl)piperidine-1-carboxylate] the DC50 was < 500 nM. For `O=C1CCC(Nc2ccc(N3CCN(C4CCN(C(=O)O[C@H]5CC[C@H](Nc6ncc(F)c(-c7cccc(N8CCCOC8=O)c7)n6)CC5)CC4)CC3)c(F)c2)C(=O)N1` (stereo partly drawn) [Compound 674, trans-4-((5-fluoro-4-(3-(2-oxo-1,3-oxazinan-3-yl)phenyl)pyrimidin-2-yl)amino)cyclohexyl 4-(4-(4-((2,6-dioxopiperidin-3-yl)amino)-2-fluorophenyl)piperazin-1-yl)piperidine-1-carboxylate], the DC50 was < 500 nM. With `O=C1CCC(Nc2ccc(C3CCN(C4CCN(C(=O)O[C@H]5CC[C@H](Nc6ncc(F)c(-c7cccc(N8CCOCC8)c7)n6)CC5)CC4)CC3)c(F)c2)C(=O)N1` (stereo partly drawn) [Compound 676, trans-4-((5-fluoro-4-(3-morpholinophenyl)pyrimidin-2-yl)amino)cyclohexyl 4-(4-((2,6-dioxopiperidin-3-yl)amino)-2-fluorophenyl)-[1,4′-bipiperidine]-1′-carboxylate] the DC50 was < 500 nM. In the case of `O=C1CCC(Nc2ccc(C3CCN(C4CCN(C(=O)O[C@H]5CC[C@H](Nc6ncc(F)c(-c7cccc(N8CCCOC8=O)c7)n6)CC5)CC4)CC3)c(F)c2)C(=O)N1` (stereo partly drawn) [Compound 677, trans-4-((5-fluoro-4-(3-(2-oxo-1,3-oxazinan-3-yl)phenyl)pyrimidin-2-yl)amino)cyclohexyl 4-(4-((2,6-dioxopiperidin-3-yl)amino)-2-fluorophenyl)-[1,4′-bipiperidine]-1′-carboxylate], the DC50 is reported as < 500 nM. With `O=C1CCC(Nc2ccc(C3CCN(C4CCN(C(=O)O[C@H]5CC[C@H](Nc6ncc(F)c(-c7cccc(N8CCCCC8=O)c7)n6)CC5)CC4)CC3)c(F)c2)C(=O)N1` (stereo partly drawn) [Compound 678, trans-4-((5-fluoro-4-(3-(2-oxopiperidin-1-yl)phenyl)pyrimidin-2-yl)amino)cyclohexyl 4-(4-((2,6-dioxopiperidin-3-yl)amino)-2-fluorophenyl)-[1,4′-bipiperidine]-1′-carboxylate] the DC50 was < 500 nM. For `Cn1nc(C2CCC(=O)NC2=O)c2ccc(C3CCN(C[C@H]4CC[C@H](OC(=O)N5CCC(Nc6ncc(F)c(-c7cccc(-n8ccccc8=O)c7)n6)CC5)CC4)CC3)cc21` (stereo partly drawn) [Compound 679, trans-4-((4-(3-(2,6-dioxopiperidin-3-yl)-1-methyl-1H-indazol-6-yl)piperidin-1-yl)methyl)cyclohexyl 4-((5-fluoro-4-(3-(2-oxopyridin-1 (2H)-yl)phenyl)pyrimidin-2-yl)amino)piperidine-1-carboxylate], the DC50 was < 500 nM. In the case of `O=C1CCC(Nc2ccc(C3CCN(CC4(O)CCC(C(=O)N5CCC(Nc6ncc(F)c(-c7cccc(-n8ccccc8=O)c7)n6)CC5)CC4)CC3)c(F)c2)C(=O)N1` (stereo not drawn) [Compound 680, trans-3-((3-fluoro-4-(1-((4-(4-((5-fluoro-4-(3-(2-oxopyridin-1 (2H)-yl)phenyl)pyrimidin-2-yl)amino)piperidine-1-carbonyl)-1-hydroxycyclohexyl)methyl)piperidin-4-yl)phenyl)amino)piperidine-2,6-dione], the DC50 is reported as < 500 nM. `O=C1CCC(Nc2ccc(N3CCN(C4CC5(C4)CN(C(=O)O[C@H]4CC[C@H](Nc6ncc(F)c(-c7cccc(-n8ccccc8=O)c7)n6)CC4)C5)CC3)c(F)c2)C(=O)N1` (stereo partly drawn) [Compound 681, trans-4-((5-fluoro-4-(3-(2-oxopyridin-1 (2H)-yl)phenyl)pyrimidin-2-yl)amino)cyclohexyl 6-(4-(4-((2,6-dioxopiperidin-3-yl)amino)-2-fluorophenyl)piperazin-1-yl)-2-azaspiro[3.3]heptane-2-carboxylate] was tested, and the DC50 was < 500 nM. `O=C1CCC(Nc2ccc(C3CCN(CC4CCC(C(=O)N5CCC(Nc6ncc(F)c(-c7cccc(N8CCCCC8)c7)n6)CC5)CC4)CC3)c(F)c2)C(=O)N1` (stereo not drawn) [Compound 682, trans-3-((3-fluoro-4-(1-((4-(4-((5-fluoro-4-(3-(piperidin-1-yl)phenyl)pyrimidin-2-yl)amino)piperidine-1-carbonyl)cyclohexyl)methyl)piperidin-4-yl)phenyl)amino)piperidine-2,6-dione] was tested, and the DC50 was < 500 nM. For `O=C1CCC(Nc2ccc(C3CCN(C[C@H]4CC[C@H](C(=O)N5CCC(Nc6ncc(F)c(-c7cccc(N8CCOCC8=O)c7)n6)CC5)CC4)CC3)c(F)c2)C(=O)N1` (stereo partly drawn) [Compound 683, 3-((3-fluoro-4-(1-(((trans)-4-(4-((5-fluoro-4-(3-(3-oxomorpholino)phenyl)pyrimidin-2-yl)amino)piperidine-1-carbonyl)cyclohexyl)methyl)piperidin-4-yl)phenyl)amino)piperidine-2,6-dione], the DC50 was > 5000 nM. In the case of `O=C1CCC(Nc2ccc(C3CCN(C[C@H]4CC[C@H](C(=O)N5CCC(Nc6ncc(F)c(-c7cccc(N8CCCOC8=O)c7)n6)CC5)CC4)CC3)c(F)c2)C(=O)N1` (stereo partly drawn) [Compound 684, trans-3-((3-fluoro-4-(1-((4-(4-((5-fluoro-4-(3-(2-oxo-1,3-oxazinan-3-yl)phenyl)pyrimidin-2-yl)amino)piperidine-1-carbonyl)cyclohexyl)methyl)piperidin-4-yl)phenyl)amino)piperidine-2,6-dione], the DC50 is reported as < 500 nM. In the case of `O=C1CCC(Nc2ccc(C3CCN(C[C@H]4CC[C@H](C(=O)N5CCC(Nc6ncc(F)c(-c7cccc(N8CCCCC8=O)c7)n6)CC5)CC4)CC3)c(F)c2)C(=O)N1` (stereo partly drawn) [Compound 685, 3-((3-fluoro-4-(1-((trans-4-(4-((5-fluoro-4-(3-(2-oxopiperidin-1-yl)phenyl)pyrimidin-2-yl)amino)piperidine-1-carbonyl)cyclohexyl)methyl)piperidin-4-yl)phenyl)amino)piperidine-2,6-dione], the DC50 is reported as < 500 nM. `O=C1CCC(Nc2ccc(N3CCN(CC4CCN(C(=O)[C@H]5CC[C@H](Nc6ncc(F)c(-c7cccc(N8CCOCC8)c7)n6)CC5)CC4)CC3)c(F)c2)C(=O)N1` (stereo partly drawn) [Compound 686, trans-3-((3-fluoro-4-(4-((1-(4-((5-fluoro-4-(3-morpholinophenyl)pyrimidin-2-yl)amino)cyclohexane-1-carbonyl)piperidin-4-yl)methyl)piperazin-1-yl)phenyl)amino)piperidine-2,6-dione] was tested, and the DC50 was < 500 nM.

Same assay, conditions: read-out: HiBIT-degradation MOLT4 PIP4k2C DC50 (6 hours, marked *); 6 hours of incubation time, rather than 24 hours; MOLT-4, top concentration 10 micromolar
With `O=C1CCC(Nc2ccc(N3CCN(C4CCN(C(=O)O[C@H]5CC[C@H](Nc6ncc(F)c(-c7cccc(N8CCCCC8=O)c7)n6)CC5)CC4)CC3)c(F)c2)C(=O)N1` (stereo partly drawn) [Compound 675, trans-4-((5-fluoro-4-(3-(2-oxopiperidin-1-yl)phenyl)pyrimidin-2-yl)amino)cyclohexyl 4-(4-(4-((2,6-dioxopiperidin-3-yl)amino)-2-fluorophenyl)piperazin-1-yl)piperidine-1-carboxylate] the DC50 was < 500 nM.
